According to US11932870B2, “Compositions and methods for immune cell modulation in adoptive immunotherapies” (Fate Therapeutics, Inc., priority 2016, dated 2024):

What was measured:
[1] = test system: CD8 T cells transduced with CAR Construct 1; test: Tcm phenotype skewing of CAR-T cells (CD62L, CCR7, CD27 surface expression); assay type: cell-based, human; settings: flow cytometry day 8
Experimental: (§1) Culturing cells in large-scale for phenotypic and exhaustion marker evaluation. Isolated CD8 T cells were activated in bulk on day 0 using anti-CD3/anti-CD28 beads in T cell media supplemented with IL-2. On day 1, cells were transduced with the CAR Construct and cell density was adjusted to 0.5×10^6/ml and 10^6 cells were seeded into 12-well plates in the presence of vehicle, TWS119, or DCC-2036. On day 4, cells were transferred into 6-well plates and 2 ml of T cell media was added to each well. On day 6 another 2 ml of media was added to each well. On day 8, CAR T cells were analyzed on a flow cytometer for surface expression of phenotypic markers (CD62L, CCR7, and CD27) and exhaustion markers (PD-1 and Tim-3).
To determine the effect of compound treatment on skewing towards a central memory phenotype, isolated CD8 T cells were activated in bulk on day 0 using anti-CD3/anti-CD28 beads in T cell media supplemented with IL-2. On day 1, cells were transduced with the CAR Construct 1 shown in FIG. 2 and cell density was adjusted to 0.5×10^6/ml and 10^6 cells were seeded into 12 well plates in the presence of vehicle (DMSO), TWS119 or DCC-2036 at the same concentrations. On day 4, cells were transferred into 6-well plates and 2 ml of media was added to each well. On day 6 another 2 ml of media was added to each well. On day 8, cells were analyzed on a flow cytometer for cell surface expression of CD27.
The expression of CD27 observed with vehicle treatment was defined as an MFI (mean fluorescence intensity) of 1 and the relative MFI of cells treated with compound was calculated.

CD8 CAR-T cells = test: Exhaustion marker expression (PD-1, Tim-3) on CD8 CAR-T cells; assay type: cell-based, human
Experimental: as §1
To determine the effect of compound treatment of CAR-T cells on exhaustion marker expression, cells from three different donors were prepared and treated as described in the protocol above. PD-1 and Tim-3 expression was determined using flow cytometry. […] Tim-3 expression was reduced 2-fold with TWS119, and 3.7-fold with DCC-2036 treatment (FIG. 6A).

[2] = test system: CAR-T cells co-cultured with irradiated K562 tumor cells that express CD19; test: In vitro serial killing/re-stimulation assay; assay type: cell-based, human; settings: relative to vehicle; FIG. 3C
Text: An informative clinical parameter that can in some contexts be indicative of likelihood of successful adoptive cell therapy in clinical trials is the ability and extent of expansion of the transferred cells in the patient post-treatment and/or persistence and continued function following initial expansion, e.g., in the context of continued exposure to antigen. The ability of engineered T cells to persist and continue expanding over multiple rounds of antigen stimulation can be indicative of such features and/or likelihood of in vivo function or clinical response. An in vitro serial killing/re-stimulation assay, where the T cells treated by each compound were evaluated for various functions, including expansion and ability to kill tumor cells expressing the target antigen in vitro over multiple rounds of exposure to and withdrawal from antigen, was used as a model system. Such assays were carried out on cells treated with or without compounds, to assess the impact of individual compounds on cell function after repeated encounter with antigen, and cell expansion or persistence in such contexts.
CD8 T cells were activated, transduced, and expanded in the presence of DMSO, TWS119, or DCC-2036. At the end of the expansion, the CAR-T cells were cryopreserved. The serial re-stimulation assay was performed by thawing the CAR-T cells and co-culturing with irradiated K562 tumor cells that express CD19, the antigen recognized by the CAR. Prior to starting each round of killing, cell numbers were adjusted so that CAR-T cell numbers were substantially the same from the cultures generated with DMSO, TWS119, and DCC-2036 treatment respectively. An equal number of irradiated CD19-expressing K562 target cells were added to the different CAR-T cultures.

Nalm-6-luc tumor cells = test: In vivo tumor clearance by compound-treated CD19 CAR-T cells; settings: NSG mice with Nalm-6-luc; 2.0×10^5 cryopreserved compound-treated CAR-T cells per animal (1:1 CD4:CD8); imaging; FIGS. 7 and 8
Experimental: NSG mice were injected with Nalm-6-luc, a CD19+ human tumor line engineered to express firefly luciferase. CAR-T cells were generated from CD4+ and CD8+ T cells that were separately activated and expanded in vitro. The cells were transduced with the CAR-2 construct (FIG. 2) one day after activation and then replated into 24-well GREX plates with or without the compounds. Half the media was replaced every two days thereafter until harvest one week post-activation. Cells were cryopreserved and then thawed for use. NSG mice were infused with tumor cells followed […] by CAR-T transfer via retroorbital injection. Four days after IV. injection with Nalm-6-luc cells, mice were treated with 2.0×10^5 CAR-T cells per animal (1:1 CD4:CD8). The mice were imaged periodically to determine tumor burden.

Question: With Nc1cccc(-c2cc3c(Oc4cccc(O)c4)ncnc3[nH]2)c1 [TWS119] as the compound, how does the “increase in the frequency of CAR-T cells expressing both CD62L and CCR7” value ([1]; relative to vehicle (DMSO), FIG. 4A) read?
Answer: The value was 1.7 fold.

Question: What about the “increase in the expression of the differentiation marker CD27 (relative MFI)” value ([1]; relative to vehicle (MFI defined as 1), FIG. 4B) of the same compound?
Answer: Its value is “did not have an effect”.

Question: And the “expression of T cell exhaustion marker Tim-3” value (CD8 CAR-T cells; CD8 T cells at one week post activation, relative to DMSO, FIG. 6A)?
Answer: The value was “reduced expression”.

Question: What about the “expression of T cell exhaustion marker PD-1” value (CD8 CAR-T cells; CD8 T cells at one week post activation, relative to DMSO, FIG. 6B) of the same compound?
Answer: Its value is “reduced expression”.

Question: What about the “reduction of Tim-3 expression” value (CD8 CAR-T cells; relative to vehicle, three donors, FIG. 6A) of the same compound?
Answer: Its value is 2 fold.

Question: What about the “decrease in PD-1 surface expression” value (CD8 CAR-T cells; relative to vehicle, three donors, FIG. 6B) of the same compound?
Answer: The value was 3.3 fold.

Question: What about the “cell number expansion of CAR-T cells in rounds 3 and 4 of the serial re-stimulation assay” value [2] of the same compound?
Answer: Its value is “modest increase in expansion relative to vehicle”.

Question: And the “tumor burden / tumor control” value (Nalm-6-luc tumor cells)?
Answer: Its value is “minimal tumor control”.
